From US20230133958A1, “COMPOUNDS USEFUL IN MODULATING EGFR AND PI3K” (Mekanistic Therapeutics LLC, priority 2021, published 2023)

Key:
Assay type in all cases: cell-based
UACC-62 = assay: NCI COMPARE panel (SRB growth inhibition), UACC-62; details: Homo sapiens; Melanoma, UACC-62, 48 h
Procedure: (§1) The human tumor cell lines of the cancer screening panel are grown in RPMI 1640 medium containing 5% fetal bovine serum and 2 mM L-glutamine. For a typical screening experiment, cells are inoculated into 96 well microtiter plates in 100 µL at plating densities ranging from 5,000 to 40,000 cells/well depending on the doubling time of individual cell lines. After cell inoculation, the microtiter plates are incubated at 37° C., 5% CO2, 95% air and 100% relative humidity for 24 h prior to addition of experimental drugs.
(§2) After 24 h, two plates of each cell line are fixed in situ with TCA, to represent a measurement of the cell population for each cell line at the time of drug addition (Tz). Experimental drugs are solubilized in dimethyl sulfoxide at 400-fold the desired final maximum test concentration and stored frozen prior to use. […]
(§3) Following drug addition, the plates are incubated for an additional 48 h at 37° C., 5 % CO2, 95% air, and 100% relative humidity. […] Bound stain is subsequently solubilized with 10 mM trizma base, and the absorbance is read on an automated plate reader at a wavelength of 515 nm. […] Using the seven absorbance measurements [time zero, (Tz), control growth, (C), and test growth in the presence of drug at the five concentration levels (Ti)], the percentage growth is calculated at each of the drug concentrations levels. Percentage growth inhibition is calculated as: […]

A549/ATCC = assay: NCI COMPARE panel (SRB growth inhibition), A549/ATCC; details: Homo sapiens, Non-Small Cell Lung Cancer, 48 h
Procedure: as §1, §2, §3

SR = assay: NCI COMPARE panel (SRB growth inhibition), SR; details: Homo sapiens, Leukemia, 48 h
Procedure: as §1, §2, §3

SNB-19 = assay: NCI COMPARE panel (SRB growth inhibition), SNB-19; details: Homo sapiens; CNS Cancer, SNB-19, 48 h
Procedure: as §1, §2, §3

NCI/ADR-RES = assay: NCI COMPARE panel (SRB growth inhibition), NCI/ADR-RES; details: Homo sapiens, Ovarian Cancer, 48 h
Procedure: as §1, §2, §3

SF-268 = assay: NCI COMPARE panel (SRB growth inhibition), SF-268; details: Homo sapiens; CNS Cancer, SF-268, 48 h
Procedure: as §1, §2, §3

A498 = assay: NCI COMPARE panel (SRB growth inhibition), A498; details: Homo sapiens; Renal Cancer, A498, 48 h
Procedure: as §1, §2, §3

TK-10 = assay: NCI COMPARE panel (SRB growth inhibition), TK-10; details: Homo sapiens; Renal Cancer, TK-10, 48 h
Procedure: as §1, §2, §3

MDA-MB-468 = assay: NCI COMPARE panel (SRB growth inhibition), MDA-MB-468; details: Homo sapiens; Breast Cancer, MDA-MB-468, 48 h
Procedure: as §1, §2, §3

T-47D = assay: NCI COMPARE panel (SRB growth inhibition), T-47D; details: Homo sapiens, T47D, Breast Cancer, 48 h
Procedure: as §1, §2, §3

| SMILES | GI50 (UACC-62) | GI50 (A549/ATCC) | GI50 (SR) | GI50 (SNB-19) | GI50 (NCI/ADR-RES) | GI50 (SF-268) | GI50 (A498) | GI50 (TK-10) | GI50 (MDA-MB-468) | GI50 (T-47D) |
| --- | --- | --- | --- | --- | --- | --- | --- | --- | --- | --- |
| CS(=O)(=O)Nc1cc(-c2ccc3ncc(C#N)c(Nc4cccc(Cl)c4F)c3c2)cnc1Cl [Compound 10, N-[2-chloro-5-[4-(3-chloro-2-fluoro-anilino)-3-cyano-6-quinolyl]-3-pyridyl]methanesulfonamide] | 0.075 to 0.125 µM | > 0.25 µM | ≤ 0.075 µM | 0.125 to 0.25 µM | > 0.25 µM | 0.075 to 0.125 µM | ≤ 0.075 µM | 0.075 to 0.125 µM | ≤ 0.075 µM | 0.125 to 0.25 µM |
| CS(=O)(=O)Nc1cc(-c2ccc3ncnc(Nc4cccc(Cl)c4F)c3c2)cnc1Cl [Compound 6, N-[2-chloro-5-[4-(3-chloro-2-fluoro-anilino)quinazolin-6-yl]-3-pyridyl] methanesulfonamide] | ≤ 0.075 µM | 0.125 to 0.25 µM | > 0.25 µM | 0.125 to 0.25 µM | > 0.25 µM | 0.125 to 0.25 µM | ≤ 0.075 µM | ≤ 0.075 µM | 0.125 to 0.25 µM | ≤ 0.075 µM |
